Here are results for two molecules from patent publication US6369074B1, “Aminomethylene substituted non-aromatic heterocycles and use as substance P antagonists” (Pfizer Inc., priority 1992, dated 2002).

Where a name gives a salt, the structure may show the parent alone.

On to `COc1ccc(-n2c(C)ccc2C)cc1CN[C@H]1CCCN[C@H]1c1ccccc1` (as salt: hydrochloride) [Example 19, (2S,3S)-[5-(2,5-Dimethylpyrrol-1-yl)-2-methoxybenzyl]-(2-phenylpiperidin-3-yl) amine], for which the melting point was 217 °C (dec.).

As to `COc1ccc2c(C)c(C)sc2c1CN[C@H]1CCCN[C@H]1c1ccccc1.Cl.Cl.O` (hydrate or solvate), the melting point lay within 240 to 244 °C.

One may read the melting point as the temperature, or range, at which the solid turns liquid.
